Test results from US9096591B2, “Tetracyclic compounds” (Medivation Technologies, Inc., priority 2007, dated 2015).

How the values were obtained:
[1] = biological target: T1, human recombinant adrenergic α2A receptor (Homo sapiens, UniProt P08913); experiment: Adrenergic α2A radioligand binding ([3H]MK-912); parameters: Inhibition of ligand binding, Adren. alpha2A: concentration or dose not given beside the values; conditions: percent inhibition of specific binding
T1 construct: expressed in transfected cells; host or cells: insect Sf9 cells
T1 sequence (P08913 1-465): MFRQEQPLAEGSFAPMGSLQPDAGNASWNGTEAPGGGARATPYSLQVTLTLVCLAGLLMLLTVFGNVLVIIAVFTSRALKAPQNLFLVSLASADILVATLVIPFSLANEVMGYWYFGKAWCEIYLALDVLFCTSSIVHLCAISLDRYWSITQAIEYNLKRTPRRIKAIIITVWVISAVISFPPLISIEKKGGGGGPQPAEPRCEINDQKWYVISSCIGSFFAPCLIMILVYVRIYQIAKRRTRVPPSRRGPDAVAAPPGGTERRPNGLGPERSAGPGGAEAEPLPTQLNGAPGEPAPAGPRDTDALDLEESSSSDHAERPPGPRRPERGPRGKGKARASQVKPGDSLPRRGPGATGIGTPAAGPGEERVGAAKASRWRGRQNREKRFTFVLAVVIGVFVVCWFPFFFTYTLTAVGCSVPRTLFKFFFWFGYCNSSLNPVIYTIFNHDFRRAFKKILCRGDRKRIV
In short: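 Membranes from Sf9 cells expressing the receptor were incubated with 1 nM [3H]MK-912 for 60 minutes at 25° C in 50 mM Tris-HCl pH 7.4, 12.5 mM MgCl2, 2 mM EDTA. 10 μM WB-4101 defined non-specific binding. Values are percent inhibition of specific bound radioactivity after filtration.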

[2] = biological target: T2, Serotonin (5-Hydroxytryptamine) 5-HT7 (Homo sapiens, UniProt P34969); experiment: Serotonin 5-HT7 radioligand binding ([3H]LSD); parameters: Inhibition of ligand binding, Ser. 5-HT7: concentration or dose not given beside the values; conditions: percent inhibition of specific binding
T2 construct: expressed in transfected cells; host or cells: CHO cells
Procedure: Lysergic acid diethylamide (LSD) for 2 hours at 25° C. […] Receptor proteins were filtered and washed, the filters were then counted to determine [^3H]LSD specifically bound. […] Biochemical assay results are presented as the percent inhibition of specific binding in Table 6.

[3] = biological target: T3, human recombinant serotonin (5-Hydroxytryptamine) 5-HT6 receptor (Homo sapiens, UniProt P50406); experiment: Serotonin 5-HT6 radioligand binding ([3H]LSD); parameters: Inhibition of ligand binding, Ser. 5-HT6: concentration or dose not given beside the values; conditions: percent inhibition of specific binding
T3 construct: expressed in transfected cells; host or cells: human HeLa cells
Excerpt: Receptor proteins were filtered and washed, the filters were then counted to determine [3H]LSD specifically bound. […] Biochemical assay results are presented as the percent inhibition of specific binding in Table 6.

[4] = biological target: T4, human recombinant adrenergic α1D receptor (Homo sapiens, UniProt P25100); experiment: Adrenergic α1D radioligand binding ([3H]Prozosin); parameters: Inhibition of ligand binding, Adren. alpha1D: concentration or dose not given beside the values; conditions: percent inhibition of specific binding
T4 construct: expressed in transfected cells; host or cells: HEK-293 cells
T4 sequence (P25100 1-572): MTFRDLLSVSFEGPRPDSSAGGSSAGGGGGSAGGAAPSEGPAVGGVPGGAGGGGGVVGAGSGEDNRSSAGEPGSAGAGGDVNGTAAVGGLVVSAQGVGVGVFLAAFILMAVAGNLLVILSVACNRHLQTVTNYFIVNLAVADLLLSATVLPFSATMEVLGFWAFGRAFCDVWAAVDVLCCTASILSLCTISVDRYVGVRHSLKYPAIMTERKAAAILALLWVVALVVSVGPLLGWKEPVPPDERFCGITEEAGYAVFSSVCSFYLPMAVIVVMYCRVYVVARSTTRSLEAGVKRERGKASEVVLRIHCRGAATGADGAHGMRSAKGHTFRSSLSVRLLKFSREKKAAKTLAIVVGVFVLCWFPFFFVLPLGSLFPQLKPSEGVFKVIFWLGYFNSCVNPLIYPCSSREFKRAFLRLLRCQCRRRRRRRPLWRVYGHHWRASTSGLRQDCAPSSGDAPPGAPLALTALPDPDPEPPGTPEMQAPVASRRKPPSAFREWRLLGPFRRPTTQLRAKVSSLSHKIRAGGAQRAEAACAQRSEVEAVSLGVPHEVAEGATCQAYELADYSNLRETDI
Procedure: Compounds of invention were incubated with 0.6 nM [^3H]Prozosin for 60 minutes at 25° C. Non-specific binding was estimated in the presence of 10 μM phentolamine. Receptor proteins were filtered and washed, the filters were then counted to determine [^3H]Prozosin specifically bound. […] Biochemical assay results are presented as the percent inhibition of specific binding in Table 6.

[5] = test system: adrenergic receptors α1D, α2A, α2B; serotonin receptor 5-HT6; dopamine receptor D2L; experiment: Classification of compounds (Type 1-4) from receptor binding and neurite outgrowth

T2 sequence (P34969 whole entry): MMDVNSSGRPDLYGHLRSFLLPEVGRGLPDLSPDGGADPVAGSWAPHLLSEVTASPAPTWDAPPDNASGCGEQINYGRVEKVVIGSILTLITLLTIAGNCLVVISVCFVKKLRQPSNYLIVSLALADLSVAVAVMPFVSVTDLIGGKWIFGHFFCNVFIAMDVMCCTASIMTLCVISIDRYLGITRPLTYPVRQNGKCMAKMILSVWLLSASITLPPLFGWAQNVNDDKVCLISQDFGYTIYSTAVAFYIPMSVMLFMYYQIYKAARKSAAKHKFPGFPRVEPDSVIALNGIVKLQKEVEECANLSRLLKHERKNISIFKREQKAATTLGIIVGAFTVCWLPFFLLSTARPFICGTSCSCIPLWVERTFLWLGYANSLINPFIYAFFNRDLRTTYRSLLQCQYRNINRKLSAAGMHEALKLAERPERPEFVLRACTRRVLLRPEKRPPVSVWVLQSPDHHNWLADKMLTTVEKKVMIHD
T3 sequence (P50406 whole entry): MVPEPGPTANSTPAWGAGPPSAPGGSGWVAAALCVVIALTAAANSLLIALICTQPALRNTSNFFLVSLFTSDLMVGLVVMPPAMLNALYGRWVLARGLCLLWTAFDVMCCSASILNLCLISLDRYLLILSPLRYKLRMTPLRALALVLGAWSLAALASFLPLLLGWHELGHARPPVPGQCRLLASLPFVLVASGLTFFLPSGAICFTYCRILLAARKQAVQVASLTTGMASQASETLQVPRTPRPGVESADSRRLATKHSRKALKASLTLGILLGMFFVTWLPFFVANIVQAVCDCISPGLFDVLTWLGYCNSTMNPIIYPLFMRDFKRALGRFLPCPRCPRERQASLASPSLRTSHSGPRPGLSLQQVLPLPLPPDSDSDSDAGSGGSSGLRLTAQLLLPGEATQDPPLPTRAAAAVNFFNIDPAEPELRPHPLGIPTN

SMILES	Inhibition of ligand binding, Adren. alpha2A [1] [%]	Inhibition of ligand binding, Ser. 5-HT7 [2] [%]	Inhibition of ligand binding, Ser. 5-HT6 [3] [%]	Inhibition of ligand binding, Adren. alpha1D [4] [%]	compound type (classification by receptor binding profile and neurite outgrowth) [5]
Cc1ccc(CCn2c3c(c4cc(Cl)ccc42)CN(C)CC3)cc1 [Compound 43]	100	92	102	98	Type one
CN1CCc2c(c3cc(Cl)ccc3n2CCc2ccc(Cl)cc2)C1 [Compound 45, 5-(4-chlorophenethyl)-8-chloro-2,3,4,5-tetrahydro-2-methyl-1H-pyrido[4,3-b]indole]	100	99	103	92	Type one
Cc1ccc(CCn2c3c(c4cc(C(F)(F)F)ccc42)CN(C)CC3)cc1 [Compound 47]	98	92	99	81	Type one
CN1CCc2c(c3cc(Cl)ccc3n2CCc2cccnc2)C1 [Compound 55]	86		94	84	Type one
CN1CCc2c(c3cc(Cl)ccc3n2CCc2ccncc2)C1 [Compound 56]	95	91	102	91	Type one
Cc1ccc2c(c1)c1c(n2CCc2cccnc2)CCN(C)C1 [Compound 60]	84		91	82	Type one
Cc1ccc2c(c1)c1c(n2CCc2ccc(C(F)(F)F)nc2)CCN(C)C1 [Compound 68]	94	103	88	98	Type one
CN1CCc2c(c3cccc(Cl)c3n2CCc2ccccc2)C1 [Compound 83]	100	95	106	92	Type one
CN1CCc2c(c3cc(Cl)ccc3n2CCc2ccc(F)cc2)C1 [Compound 162, 5-(4-fluorophenethyl)-8-chloro-2,3,4,5-tetrahydro-2-methyl-1H-pyrido[4,3-b]indole]	99	94	99	90	Type one
Cc1ccc(CCn2c3c(c4cc(Cl)ccc42)CN(C)CC3)cn1 [Compound 225, 8-chloro-2,3,4,5-tetrahydro-2-methyl-5-(2-(6-methylpyridin-3-yl)ethyl)-1H-pyrido[4,3-b]indole]	91		81	86	Type one
CCc1ccc2c(c1)c1c(n2CCc2ccc(C)nc2)CCN(C)C1 [Compound 357, 8-Ethyl-2-methyl-5-[2-(6-methyl-pyridin-3-yl)-ethyl]-2,3,4,5-tetrahydro-1H-pyrido[4,3-b]indole]	91		85	89	Type one
Cc1ccc2c(c1)c1c(n2CCc2ccc(C(C)C)nc2)CCN(C)C1 [Compound 360, 5-[2-(6-Isopropyl-pyridin-3-yl)-ethyl]-2,8-dimethyl-2,3,4,5-tetrahydro-1H-pyrido[4,3-b]indole]	101	91	91	96	Type one
CCc1ccc(CCn2c3c(c4cc(Cl)ccc42)CN(C)CC3)cn1 [Compound 371, 8-Chloro-5-[2-(6-ethyl-pyridin-3-yl)-ethyl]-2-methyl-2,3,4,5-tetrahydro-1H-pyrido[4,3-b]indole]	89		88	88	Type one
Cc1ccc(CCn2c3c(c4cc(Cl)c(F)cc42)CN(C)CC3)cn1 [Compound 404, 8-Chloro-7-fluoro-2-methyl-5-[2-(6-methyl-pyridin-3-yl)-ethyl]-2,3,4,5-tetrahydro-1H-pyrido[4,3-b]indole]	94		94	81	Type one
Cc1ccc2c(c1)c1c(n2CCc2cncc(Cl)c2)CCN(C)C1 [Compound 443, 5-(2-(5-chloropyridin-3-yl)ethyl)-2,3,4,5-tetrahydro-2,8-dimethyl-1H-pyrido[4,3-b]indole]	87		96	91	Type one
CN1CCc2c(c3cc(Cl)ccc3n2CCc2cncc(Cl)c2)C1 [Compound 444, 8-chloro-5-(2-(5-chloropyridin-3-yl)ethyl)-2,3,4,5-tetrahydro-2-methyl-1H-pyrido[4,3-b]indole]	89		96	91	Type one
Cc1ccc2c(c1)c1c(n2CC(C)c2ccc(F)cc2)CCN(C)C1 (centres unmarked) [Compound 456, 5-(2-(4-fluorophenyl)propyl)-2,3,4,5-tetrahydro-2,8-dimethyl-1H-pyrido[4,3-b]indole]	106		98	96	Type one
CCCc1ccc(CCn2c3c(c4cc(Cl)ccc42)CN(C)CC3)cn1 [Compound 476, 8-chloro-2,3,4,5-tetrahydro-2-methyl-5-(2-(6-propylpyridin-3-yl)ethyl)-1H-pyrido[4,3-b]indole]	87		87	95	Type one
